PMC7933930, “Development of a small molecule that corrects misfolding and increases secretion of Z α1‐antitrypsin” (EMBO Molecular Medicine, 2021)

Key:
[1] = test system: α1‐antitrypsin variants M, S, Baghdad, Z; assay: Association with α1‐antitrypsin variants M, S, Baghdad and Z (intrinsic tryptophan fluorescence); type: binding, human; conditions: 10 μM GSK716
Excerpt: Polymerisation of α1‐antitrypsin involves transition through a transient intermediate state known as M*, that is readily populated by the Z variant (Dafforn et al, 1999; Knaupp et al, 2010). The M* conformational ensemble appears to be a distinct species between the native state conformation and that of the final polymer. One of the hallmarks of M* is its recognition by environment‐sensitive fluorescent reporter dyes. Thermal shift assays that make use of the dye SYPRO Orange report the stability of the protein native state against heat‐induced unfolding. […] Native state stability can also be probed by equilibrium unfolding using chemical denaturants, where a peak in bis‐ANS fluorescence corresponds with a maximally populated unfolding intermediate (James & Bottomley, 1998). […] The association of GSK716 induced a marked quenching and blue‐shift of the α1‐antitrypsin intrinsic tryptophan fluorescence spectrum (Fig 4D, inset). The rate of change in fluorescence during association of 10µM GSK716 was proportional to the propensity of α1‐antitrypsin mutants to form polymers in vivo: inert (M), mild (S), moderate (Baghdad) and severe (Z) α1‐antitrypsin (Fig 4D, top and bottom). […]

ChromLogD = type: physicochemical; conditions: pH 7.4; pH7.4
Method: ChromLogD was measured as previously described (Valkó et al, 1997).

Z α1‐antitrypsin = Z α1‐antitrypsin (Homo sapiens, UniProt P01009, E366K); assay: TR‐FRET immunoassay (2C1 antibody) of Z α1‐antitrypsin polymerisation, 37°C, 72 h; type: biochemical; design: purified from the plasma of Z α1‐antitrypsin homozygotes; from tissue; host or cells: human plasma of Z α1-antitrypsin homozygotes
Excerpt: Z α1‐antitrypsin is a conformationally dynamic molecule (Lomas et al, 1992; Knaupp et al, 2010) that represents a non‐classical target for drug discovery. A cell‐free assay approach to hit finding was undertaken so as not to miss compounds that bind α1‐antitrypsin and block polymerisation but lack the molecular properties to cross cell membranes. This comprised the following: (i) an encoded library technology (ELT) screen (Goodnow et al, 2017) of a library with a nominal diversity of 2 × 10^12 unique components to identify binders to Z α1‐antitrypsin and (ii) a high‐throughput screen (HTS) of the GSK compound collection (~ 1.7 million compounds) for small molecules that could block polymerisation of Z α1‐antitrypsin. […] In the HTS assay, polymerisation of purified Z α1‐antitrypsin was induced by incubation at 37°C for 72 h in the presence of test compounds, with end‐point quantification of polymers performed using the polymer‐specific monoclonal antibody, 2C1 (Miranda et al, 2010) in a TR‐FRET‐based immunoassay. […]
An antibody‐based time‐resolved fluorescence resonance energy transfer (TR‐FRET) assay was developed to monitor the polymerisation of 5 nM Z α1‐antitrypsin following incubation with varying concentrations of compounds at 37°C for 72 h. This assay used the 2C1 monoclonal antibody (1.25 nM) that is specific to pathological polymers of α1‐antitrypsin (Miranda et al, 2010), a polyclonal antibody (1/320 dilution) that binds to all forms of α1‐antitrypsin (Abcam product 9373), an anti‐mouse IgG (1.5 nM) labelled with fluorescence donor Eu‐W1024 (Perkin Elmer product AD0076) and an anti‐rabbit IgG (14.3 nM labelled with acceptor [APC]). […] The TR‐FRET signal was read on an Envision plate reader (PerkinElmer), by excitation of Europium at 337 nm and detection of emission at 665 and 620 nm.

Sequence of Z α1‐antitrypsin (P01009 25-418 E366K): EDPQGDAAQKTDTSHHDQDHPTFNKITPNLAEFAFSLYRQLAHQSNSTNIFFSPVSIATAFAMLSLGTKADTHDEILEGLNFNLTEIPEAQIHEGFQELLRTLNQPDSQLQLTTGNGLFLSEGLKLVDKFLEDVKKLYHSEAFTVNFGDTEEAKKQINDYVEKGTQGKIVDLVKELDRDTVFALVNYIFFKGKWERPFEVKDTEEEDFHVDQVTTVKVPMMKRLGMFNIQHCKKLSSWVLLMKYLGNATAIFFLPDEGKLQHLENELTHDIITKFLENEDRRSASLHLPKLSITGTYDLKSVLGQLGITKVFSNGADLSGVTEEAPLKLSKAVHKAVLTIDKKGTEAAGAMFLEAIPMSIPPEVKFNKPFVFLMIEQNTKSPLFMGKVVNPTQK

CCC[C@@H](NC(=O)c1cccc2c1CC(=O)N2)[C@@H](O)c1cccc(F)c1C [GSK716]
binding / rate of association across α1‐antitrypsin variants [1]: M < S < Baghdad < Z α1‐antitrypsin | chromatographic logD (ChromLogD): 3.8 | IC50 (Z α1‐antitrypsin; 5 nM Z α1‐antitrypsin, 37°C, 72 h, read-out: pIC50, blocking polymerisation in the TR‐FRET immunoassay (converted)): 5.01 nM | increase in potency over GSK425 (Z α1‐antitrypsin; TR‐FRET polymerisation immunoassay): ~ 100 fold
